Experimental data reported in ChEMBL document CHEMBL1136543, “3,4-disubstituted azetidinones as selective inhibitors of the cysteine protease cathepsin K. Exploring P2 elements for selectivity” (Bioorg Med Chem Lett, 2003).

What was measured:
Cathepsin S [1] = target: T1, Cathepsin S (Homo sapiens, UniProt P25774); test: Selectivity ratio between Cathepsin S and Cathepsin K
Target sequence in this assay (P25774 115-331 limits assumed): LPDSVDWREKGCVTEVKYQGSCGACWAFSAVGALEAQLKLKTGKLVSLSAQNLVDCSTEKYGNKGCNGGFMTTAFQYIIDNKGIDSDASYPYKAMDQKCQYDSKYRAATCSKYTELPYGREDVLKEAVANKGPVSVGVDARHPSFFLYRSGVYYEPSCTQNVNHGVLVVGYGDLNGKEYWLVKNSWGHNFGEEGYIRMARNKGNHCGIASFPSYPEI

Cathepsin K = target: T2, Cathepsin K (Homo sapiens, UniProt P43235); test: Inhibitory activity was measured against Cathepsin K
T2 sequence (P43235 whole entry): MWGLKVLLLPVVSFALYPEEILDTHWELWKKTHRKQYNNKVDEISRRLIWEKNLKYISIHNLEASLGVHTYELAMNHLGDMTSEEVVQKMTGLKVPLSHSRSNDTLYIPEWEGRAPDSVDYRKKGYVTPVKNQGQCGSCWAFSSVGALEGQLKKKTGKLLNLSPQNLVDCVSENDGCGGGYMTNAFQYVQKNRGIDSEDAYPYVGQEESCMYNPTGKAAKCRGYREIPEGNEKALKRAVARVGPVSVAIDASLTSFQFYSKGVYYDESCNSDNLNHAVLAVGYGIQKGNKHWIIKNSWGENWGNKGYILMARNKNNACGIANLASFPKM

Procathepsin L [2] = target: T3, Procathepsin L (Homo sapiens, UniProt P07711); test: Inhibitory activity was measured against Cathepsin L
Target sequence in this assay (P07711 whole entry): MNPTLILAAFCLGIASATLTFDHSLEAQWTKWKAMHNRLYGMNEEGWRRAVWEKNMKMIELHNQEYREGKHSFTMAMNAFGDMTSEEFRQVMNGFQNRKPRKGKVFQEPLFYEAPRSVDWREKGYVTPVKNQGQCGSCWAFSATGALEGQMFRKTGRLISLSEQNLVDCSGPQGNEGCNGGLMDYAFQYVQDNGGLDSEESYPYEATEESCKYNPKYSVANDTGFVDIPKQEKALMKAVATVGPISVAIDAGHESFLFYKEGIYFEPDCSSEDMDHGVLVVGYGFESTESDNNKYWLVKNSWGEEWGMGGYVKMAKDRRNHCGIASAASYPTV

Cathepsin S [3] = target: T1, Cathepsin S; test: Inhibitory activity was measured against Cathepsin S
Target sequence in this assay (P25774 whole entry): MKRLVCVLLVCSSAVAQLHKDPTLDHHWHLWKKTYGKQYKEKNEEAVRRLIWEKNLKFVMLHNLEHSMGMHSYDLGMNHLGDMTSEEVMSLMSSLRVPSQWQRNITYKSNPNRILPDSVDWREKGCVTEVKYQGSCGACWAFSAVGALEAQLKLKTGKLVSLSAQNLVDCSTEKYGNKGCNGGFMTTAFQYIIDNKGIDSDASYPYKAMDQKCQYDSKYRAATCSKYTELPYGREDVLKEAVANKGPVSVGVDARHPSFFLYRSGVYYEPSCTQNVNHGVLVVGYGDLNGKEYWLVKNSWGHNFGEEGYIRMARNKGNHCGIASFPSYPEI

Procathepsin L [4] = target: T3, Procathepsin L; test: Selectivity ratio between Cathepsin L and Cathepsin K
Target sequence in this assay (P07711 114-333 limits assumed): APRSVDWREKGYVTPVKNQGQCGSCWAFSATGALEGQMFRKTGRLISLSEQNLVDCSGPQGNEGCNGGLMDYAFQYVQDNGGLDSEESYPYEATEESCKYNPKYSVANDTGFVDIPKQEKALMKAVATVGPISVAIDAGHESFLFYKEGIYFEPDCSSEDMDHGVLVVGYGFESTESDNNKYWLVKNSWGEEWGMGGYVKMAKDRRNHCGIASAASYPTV

Cathepsin B [5] = target: T4, Cathepsin B (Homo sapiens, UniProt P07858); test: Selectivity ratio between Cathepsin B and Cathepsin K
Cathepsin B [6] = target: T4, Cathepsin B; test: Inhibitory activity was measured against Cathepsin B

| Ratio (Cathepsin S [1]) | Ki (Cathepsin K) [µM] | Ki (Procathepsin L [2]) [µM] | Ki (Cathepsin S [3]) [µM] | Ratio (Procathepsin L [4]) | Ratio (Cathepsin B [5]) | Ki (Cathepsin B [6]) [µM] | SMILES |
| --- | --- | --- | --- | --- | --- | --- | --- |
| 175 | 0.16 | 140 | 28 | 870 | 48 | 7.7 | CC(=O)O[C@@H]1NC(=O)[C@H]1NC(=O)C1(NC(=O)OCc2ccccc2)CCCC1 |
| 160 | 0.0057 | 6.8 | 0.95 | 1190 | 750 | 4.3 | CC(=O)O[C@@H]1NC(=O)[C@H]1NC(=O)C1(NC(=O)OCc2ccccc2)CCCCC1 |
| 100 | 0.2 | > 150 | 20 | > 750 | 320 | 65 | CC(=O)O[C@@H]1NC(=O)[C@H]1NC(=O)C1CCCCN1C(=O)OCc1ccccc1 (stereo partly drawn) |
| > 160 | 0.95 | > 150 | > 150 | > 160 | 120 | 120 | CC(=O)O[C@@H]1NC(=O)[C@H]1NC(=O)C1CCCN1C(=O)OCc1ccccc1 (stereo partly drawn) |
| 15 | 0.0088 | 3.7 | 0.13 | 420 | 180 | 1.6 | CC(=O)O[C@@H]1NC(=O)[C@H]1NC(=O)[C@@H]1CCCC[C@@H]1NC(=O)OCc1ccccc1 |
| 87 | 0.38 | 3.4 | 33 | 9 | 368 | 140 | O=C(NC1(C(=O)N[C@@H]2C(=O)N[C@H]2Oc2ccccc2)CCCCC1)OCc1ccccc1 |
| 5 | 2.1 | > 150 | 11 | > 70 | 24 | 52 | CC(=O)O[C@@H]1NC(=O)[C@H]1NC(=O)[C@@H]1CCC[C@@H]1NC(=O)OCc1ccccc1 |
| 15 | 3.6 | 16 | 53 | 4 | > 40 | > 150 | O=C(NC1(C(=O)N[C@@H]2C(=O)N[C@@H]2Oc2ccccc2)CCCCC1)OCc1ccccc1 |
| 4 | 0.0022 | 0.088 | 0.0092 | 40 | 950 | 2.1 | CC(=O)O[C@@H]1NC(=O)[C@H]1NC(=O)[C@H](CC(C)C)NC(=O)OCc1ccccc1 |
